Assay results taken from patent US5037812A, “Tumor cell growth-inhibiting pharmaceutical compositions containing phosphino-hydrocarbon-gold, silver or copper complexes” (priority 1986, dated 1991).
Several values for one entry are separate records, joined by “and”; a condition that tells them apart may be missing. Equal entries are not always repeated.

Assays:
P388 leukemia = assay: ip P388 leukemia mouse model; format: in vivo, mice (B6D2F1); conditions: for MTD (maximally tolerated dose): B6D2F female mice, ip qDX5; for ILS max (maximum increase in lifespan): mice bearing ip P388 leukemia, ip days 1-5 at MTD, slash-separated figures are separate experiments
Experimental: This tumor system is widely accepted as an antitumor agent screening tool because it is sensitive to virtually all of the clinically active antineoplastic agents; quantitative and reproducible; amenable for large-scale screening; and predictive for activity in other animal tumor models.
10^6 P388 leukemia cells are inoculated ip in B6D2F1 mice. Twenty-four hours later, if the tumor inoculum proves to be free of bacterial contamination (as determined by 24 hours incubation in thioglycollate broth), animals are randomized into groups of 6 and housed in shoebox cages. […] An equal volume of saline or water is added; if the drug comes out of solution an equal volume of Cremophor (polyethoxylated castor oil) is added and then saline or water, as to a concentration such that the desired dose is delivered in 0.5 ml. The final concentration of DMA, ethanol or Cremophor is 10 percent. Dilutions for lower doses are made with saline or water so that there is a decreasing proportion of organic solvents in the vehicle with decreasing dosage. […] Formulations are prepared immediately prior to injection. The Formula (I) and Formula (II) compounds are administered ip on Days 1 through 5 (i.e., treatment is initiated 24 hrs after tumor inoculation). Each experiment includes three groups of 6 animals as untreated controls and animals treated with a positive control, cisplatin, at two dose levels. Animals are weighed as a group on Days 1, 5 and 9 and average weight change (Δwt.) is used as a reflection of toxicity. Each experiment also includes an inoculum titration--groups of 8 mice inoculated ip with 10^5 to 10^0 P388 leukemia cells. The titration is used as a quality control check for the performance of the tumor model. Animals are monitored daily for mortality and experiments are terminated after 45 days. The endpoint is median survival time (MST) and increase in lifespan (ILS) which is the percentage of increase in MST relative to untreated controls.

B16 melanoma = assay: in vivo ip B16 melanoma assay; set-up: species or system mice (B6D2F1); conditions: ip qDX10; for MTD (maximally tolerated dose): B6D2F1 mice; for ILS (maximum increase in lifespan): mice bearing ip B16 melanoma, slash-separated figures are separate experiments
Experimental: Daily treatment is begun 24 hours after tumor implantation and is continued daily for ten (10) days. The route of drug administration is ip. The mice are monitored daily for survival for sixty (60) days. Antitumor activity is assessed by prolongation of median survival time. An ILS of ≥25% indicates activity in this tumor model.
^(b) maximally tolerated dose for B6D2F1 mice on an ip qDX10
^(c) maximum increase in lifespan produced in mice bearing ip B16

[1] = solubility in 9:1 water:ethanol (HPLC of filtrate); conditions: stirred 15 hours, 0.45 μm PTFE filter, HPLC
Experimental: Such solubility was determined as follows: The compound in question was dissolved or suspended in absolute ethanol (250 mg solid per 1.0 ml ethanol). To the resulting solution or suspension, water (9.0 times the volume of ethanol) was added. This suspension was stirred vigorously for 15 hours, then filtered through a 0.45 μm poly(tetrafluoroethylene) (PTFE) filter. […] The HPLC system was as follows:
Column PLRP-S, 5μm, obtained from Polymer Laboratories, Inc.
Mobile Phase 9:1 acetonitrile:0.1% tetra-n-butylammonium hydrogen sulfate (50° C., 1.0 ml-min-^-1)
Detection Ultraviolet (250 nm)

B16 melanoma cells = assay: B16 melanoma cell assay, clonogenic capacity in vitro after two-hour exposure; format: cell-based; conditions: 2-hour exposure; read-out: IC50: concentration which inhibits cloning efficiency of B16 melanoma cells by 50%
Experimental: The B16 melanoma cell assay measures the ability of a compound to inhibit the clonogenic capacity of cells in vitro following a two-hour exposure to the compound.
B16 melanoma (highly metastatic subline, F10) are used and maintained as monolayer cultures in Minimal Essential Media (Grand Island Biological Col., Grand Island, N.Y.) supplemented with 10% calf serum, 1% antibiotics in a 5% CO2 humidified incubator at 37° C. Asynchronous populations of cells are harvested and replated to 5000 cells/plate in sterile 60 mm×15 mm petri plates. Plates are incubated overnight to allow attachment of the cells to the plate. Cells are treated with a Formula (I) or Formula (II) compound/under sterile conditions, allowed to react for 2 hours followed by aspiration of medium. Plates are washed one time with 5 ml of phosphate buffered saline (PBS), followed by the addition of 5 ml of fresh medium. Plates are incubated for 5 days at 37° C. in a CO2 incubator. Viability is measured by the ability of a cell to form a colony of greater than 50 cells. Colonies are fixed with 0.5% crystal violet in 95% ethanol. Plates are dried and counted with a Biotran III Automatic Count Totalizer (New Brunswick Scientific Co., Edison, N.J.). Mean and standard deviation of triplicate samples are determined for each drug concentration. The data are analyzed plotting the log of the survival fraction (number of colonies in drug treated plates/number of colonies in controls) versus the drug concentration.
^a Concentration which inhibits cloning efficiency of B16 melanoma
cells by 50% on a 2hour exposure

[2] = tested on: M5076 reticulum cell sarcoma; assay: ip M5076 reticulum cell sarcoma in mice; format: in vivo, mice (B6D2F female); conditions: for MTD (maximally tolerated dose): B6D2F female mice, ip qDX10; for ILS max (maximum increase in lifespan): mice bearing ip M5076, ip qDX10 at MTD, slash-separated figures are separate experiments
Experimental: Another tumor model used for evaluation of tumor growth inhibiting drugs is intraperitoneally implanted M5076 reticulum cell sarcoma in mice. […] Drugs are administered ip. Daily treatment is begun 24 hours after implantation and is continued for ten days. The treatment regimen for M5076 is more prolonged than for P388 because of the slower growth rate and longer control survival time of the M5076 tumor. Compounds of Formula (I) and Formula (II) were evaluated in this assay. An evaluation of several compounds of Formula (I) in the M5076 reticulum cell sarcoma assay at their maximally tolerated dose (MTD) is set forth in Table III. An ILS of ≥25% indicates activity in this tumor model.
^(b) maximally tolerated dose for B6D2F female mice on an ip qDX10
^(c) maximum increase in lifespan produced in mice bearing ip M5076

[3] = tested on: mammary adenocarcinoma 16/c; conditions: positive control, general statement; cited from earlier work
[4] = tested on: M5076 reticulum cell sarcoma; conditions: positive control, general statement; cited from earlier work
[5] = tested on: mammary adenocarcinoma 16/c; assay: sc mammary adenocarcinoma 16/c tumor model; format: in vivo, mice (C3H); conditions: q4D × 5, 6 mg/kg; for Inhibition: Day 21
Experimental: In this experiment, the tumor was implanted sc in C3H mice, and the drug was administered ip or iv on an intermittent treatment schedule, i.e., once on days 1, 5, 9, 13 and 17. Tumors were measured 3 weeks after implantation, and activity was assessed by degree of tumor growth inhibition.
*N.P. = Proportion of mice without palpable tumors on Day 21

Row | Compound | MTD (maximally tolerated dose) (P388 leukemia) | ILS max (maximum increase in lifespan) (P388 leukemia) | MTD (maximally tolerated dose) (B16 melanoma) | ILS (maximum increase in lifespan) (B16 melanoma) | Solubility in 9:1 Water:Ethanol [1] | MTD (maximally tolerated dose) [2] | ILS max (maximum increase in lifespan) [2] | also measured
1 | O=C([O-])C1OC(O)C(O)C(O)C1O.[Au+].c1ccc(P(CCP(c2ccccc2)c2ccccc2)c2ccccc2)cc1.c1ccc(P(CCP(c2ccccc2)c2ccccc2)c2ccccc2)cc1 [compound 16, Bis[1,2-bis(diphenylphosphino)ethane]gold(I) glucuronate] | 2 mg/kg | 64 ± 17% | 1.5 mg/kg | 40% | 0.30 mg/mL |  |  | 
2 | Bis[cis-1,2-bis(diphenylphosphino)ethylene]Gold(I) Chloride [compound 3] | 2 mg/kg | 92 ± 26% | 1.5 mg/kg | 35% |  | 2.4 mg/kg | 69% | IC50 (B16 melanoma cells): 2000 nM
3 | Bis[1,2-bis(diphenylphosphino)ethane]Silver(I) Nitrate [compound 2] | 3 mg/kg | 89% and 90% |  |  |  | 2 mg/kg | 48% | IC50 (B16 melanoma cells): 4000 nM
4 | [Au+].[Cl-].c1ccc(P(CCCP(c2ccccc2)c2ccccc2)c2ccccc2)cc1.c1ccc(P(CCCP(c2ccccc2)c2ccccc2)c2ccccc2)cc1 [compound 4, Bis[1,3-Bis(diphenylphosphino)propane]Gold(I) Chloride] | 3 mg/kg | 89 ± 28% | 2 mg/kg | 34% and 28% and 40% |  | 2 mg/kg | 116% | IC50 (B16 melanoma cells): 600 nM
5 | C1=C[PH](c2ccccc2)(c2ccccc2)[Cu+]2([PH]1(c1ccccc1)c1ccccc1)[PH](c1ccccc1)(c1ccccc1)C=C[PH]2(c1ccccc1)c1ccccc1.[Cl-] (stereo not drawn) [compound 13, Bis[cis-1,2-bis(diphenylphosphino)ethylene]Copper(I) Chloride] | 3 mg/kg | 70 ± 23% | 0.75 mg/kg | 42% |  | 2 mg/kg | 40% | 
6 | Tris[1,2-bis(diphenylphosphino)ethane]Dicopper(I) Chloride | 2 mg/kg | 100% and 115% | 1 mg/kg | 54% |  | 1.6 mg/kg | 60% | 
7 | N#C[O-].[Au+].c1ccc(P(CCP(c2ccccc2)c2ccccc2)c2ccccc2)cc1.c1ccc(P(CCP(c2ccccc2)c2ccccc2)c2ccccc2)cc1 [compound 18, Bis[1,2-bis(diphenylphosphino)ethane]gold(I) cyanate] | 2 mg/kg | 84% and 50% |  |  | 0.06 mg/mL |  |  | 
8 | CCC(O)C(=O)[O-].[Au+].c1ccc(P(CCP(c2ccccc2)c2ccccc2)c2ccccc2)cc1.c1ccc(P(CCP(c2ccccc2)c2ccccc2)c2ccccc2)cc1 [compound 24, Bis[1,2-bis(diphenylphosphino)ethane]gold(I) DL-2-hydroxybutanoate] | 2 mg/kg | 55% and 80% |  |  | 0.9 mg/mL |  |  | 
9 | O=S(=O)([O-])[O-].c1ccc([PH]2(c3ccccc3)CC[PH](c3ccccc3)(c3ccccc3)[Au+]23[PH](c2ccccc2)(c2ccccc2)CC[PH]3(c2ccccc2)c2ccccc2)cc1.c1ccc([PH]2(c3ccccc3)CC[PH](c3ccccc3)(c3ccccc3)[Au+]23[PH](c2ccccc2)(c2ccccc2)CC[PH]3(c2ccccc2)c2ccccc2)cc1 (centres unmarked) [compound 17, Bis{bis[1,2-bis(diphenylphosphino)ethane]gold(I)} sulfate] | 2 mg/kg | 74% and 50% |  |  | 0.03 mg/mL |  |  | 
10 | CCP(CC)CCP(c1ccccc1)c1ccccc1.CCP(CC)CCP(c1ccccc1)c1ccccc1.[Au+].[Cl-] [compound 8] | 3 mg/kg | 54 ± 16% |  |  |  | 2 mg/kg | 46% | 
11 | CC(O)C(=O)[O-].[Au+].c1ccc(P(CCP(c2ccccc2)c2ccccc2)c2ccccc2)cc1.c1ccc(P(CCP(c2ccccc2)c2ccccc2)c2ccccc2)cc1 [compound 15, Bis[1,2-bis(diphenylphosphino)ethane]gold(I) 2-hydroxypropanoate] | 2 mg/kg | 71 ± 12% | 1.5 mg/kg | 30% | 5.2 mg/mL |  |  | 
12 | Tris{bis-[1,2-bis(diphenylphosphino)ethane]gold(I)} citrate [compound 19] | 4 mg/kg | 95% and 90% |  |  | 0.03 mg/mL |  |  | 
13 | N.N.[Cl][Pt][Cl] [Cisplatin, reference compound] |  |  |  |  |  |  |  | inhibition of the growth of mammary adenocarcinoma 16/c (in words) [3]: complete inhibition; tumor growth inhibition (in words) [4]: complete tumor growth inhibition; Mean Tumor Volume on Day 21 ([5]; Experiment 1, ip): 30 ± 64 mm^3; N.P. (proportion of mice without palpable tumors on Day 21) ([5]; Experiment 1, ip): 6/8; Inhibition ([5]; Experiment 1, ip): 97%; Mean Tumor Volume on Day 21 ([5]; Experiment 2, ip): 0 mm^3; N.P. (proportion of mice without palpable tumors on Day 21) ([5]; Experiment 2, ip): 8/8; Inhibition ([5]; Experiment 2, ip): 100%; Mean Tumor Volume on Day 21 ([5]; Experiment 2, iv): 21 ± 61 mm^3; N.P. (proportion of mice without palpable tumors on Day 21) ([5]; Experiment 2, iv): 7/8; Inhibition ([5]; Experiment 2, iv): 98%; Mean Tumor Volume on Day 21 ([5]; Experiment 3, ip): 586 ± 266 mm^3; N.P. (proportion of mice without palpable tumors on Day 21) ([5]; Experiment 3, ip): 0/8; Inhibition ([5]; Experiment 3, ip): 37%
